For orientation: Solubility means the dissolved amount per volume that the medium holds.

Data set [1] deals with Mouse Colon 26 tumor cells. The experiment in a line: Xenograft model: Mouse Colon 26 carcinoma in nude mice. Format: in vivo. The note with it: Group 1: 5-FU 10 mg/kg IV once daily for five days alone; Day 27. As to the method:
Xenograft Model: Mouse Colon 26 Carcinoma
Nude mice (Harlan Sprague Dawley, Inc., Indianapolis Ind.) were inoculated subcutaneously in the right flank with 0.1 mL of a 0.9% NaCl mixture containing a suspension of Mouse Colon 26 tumor cells (approx. 1×10^6 cells/mouse). Nine days following inoculation, the resulting tumors were measured using vernier calipers and tumor weight was calculated using the formula:
[formula] wherein the width can be taken as the smallest diameter and the length the largest diameter of the tumor. Twenty-four mice having tumors in the range of 75-144 mg were then selected. The mice were randomized into three groups of eight mice each. The body weight of each animal was at taken when the mice were pair-matched on day one and recorded. Body weights were then taken twice weekly thereafter in conjunction with tumor measurements. See Britten C. D. et al., “Enhanced antitumor activity of 6-hydroxymethyl-acylfulvene in combination with irinotecan and 5-fluorouracil in the HT29 human colon tumor xenograft model.” Cancer Res 1999; 59:1049-53, incorporated by reference herein in its entirety.
Beginning on Day 1, 5-fluorouracil (5-FU) was administered intravenously once daily for five days to each animal (Groups 1-3). […] The actual weight of each tumor was recorded.

The nature of data set [2]: Solubility of salts in distilled deionized water (HPLC). Format: physicochemical. As to the method:
The formulator can determine the solubility of the pharmaceutically acceptable salts of the disclosed inhibitors by any method desirable. The following is a non-limiting example of a procedure for evaluating the solubility of a salt of a disclosed inhibitor. A suspension of tert-butyl-{[1-(4-chlorobenzyl)-3-hydroxy-2-oxo-1,2-dihydropyridin-4-yl]methyl}-piperazine-1-carboxylate methanesulfonate (26.6 mg) in distilled deionized water (3.0 mL) is sonicated for 20 min with water bath temperature under 25° C. The suspension is filtered to remove any insoluble salt. The clear filtrate solution (200 μL) is diluted with distilled deionized water (800 μL) and subjected to HPLC analysis. The following are results for the pharmaceutically acceptable salts outlined in Table VII above.

Counter-ions that a name gives are not always drawn. Like-named read-outs stand apart in the source and are kept apart here.

Take `O=c1[nH]cc(F)c(=O)[nH]1` [Compound 5-FU, 5-fluorouracil]: the “Tumor Wgt.” value in data set [1] is listed as 1926.9 ± 284.9 mg.
For `CC(C)(C)OC(=O)N1CCN(Cc2ccn(Cc3ccc(Cl)cc3)c(=O)c2O)CC1` [Compound A41, tert-Butyl-{[1-(4-chlorobenzyl)-3-hydroxy-2-oxo-1,2-dihydropyridin-4-yl]methyl}piperazine-1-carboxylate], the “Solubility” value in data set [2] (distilled deionized water, sonicated 20 min, bath under 25° C., filtrate by HPLC, listed as Free base) is approximately 1 µg/mL.
Take `CC(C)(C)OC(=O)N1CCN(Cc2ccn(Cc3ccc(Cl)cc3)c(=O)c2O)CC1` [hydrochloride, tert-butyl-{[1-(4-chlorobenzyl)-3-hydroxy-2-oxo-1,2-dihydropyridin-4-yl]methyl}-piperazine-1-carboxylate]: the “Solubility” value in data set [2] was found to be 5900 µg/mL.
The same measure, in the same setting: for `CC(C)(C)OC(=O)N1CCN(Cc2ccn(Cc3ccc(Cl)cc3)c(=O)c2O)CC1` [p-toluenesulfonate, tert-butyl-{[1-(4-chlorobenzyl)-3-hydroxy-2-oxo-1,2-dihydropyridin-4-yl]methyl}-piperazine-1-carboxylate] the value was 2300 µg/mL.

The record behind these values is patent US8309537B2, “Compositions and methods for treating colitis” (Aerpio Therapeutics Inc., priority 2009, dated 2012).
